Measured values published in publication PMC4980083 (JCI insight, 2016).

What was measured:
[1] = target: T1, PR LBD (Homo sapiens, UniProt P06401); assay: Fluorescence polarization competition binding, PR LBD
T1 sequence (P06401 679-913 limits assumed): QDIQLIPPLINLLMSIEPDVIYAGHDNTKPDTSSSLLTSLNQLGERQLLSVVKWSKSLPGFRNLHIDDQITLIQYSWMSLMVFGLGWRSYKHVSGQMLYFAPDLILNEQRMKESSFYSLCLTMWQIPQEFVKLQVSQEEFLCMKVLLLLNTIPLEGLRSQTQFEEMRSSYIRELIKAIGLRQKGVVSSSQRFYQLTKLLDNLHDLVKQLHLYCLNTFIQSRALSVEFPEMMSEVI

[2] = test system: full-length AR and V7; assay: Probasin luciferase activity in LNCaP cells, full-length AR and V7; settings: I-EPI-002 2 μM, enzalutamide 5 μM; presence or absence of androgen
[3] = target: T2, recombinant AR LBD (Homo sapiens, UniProt P10275); assay: Fluorescence polarization competition binding, AR LBD; settings: 1 nM fluorescently labeled ligand, AR LBD 25 nM
T2 sequence (P10275 669-900 limits assumed): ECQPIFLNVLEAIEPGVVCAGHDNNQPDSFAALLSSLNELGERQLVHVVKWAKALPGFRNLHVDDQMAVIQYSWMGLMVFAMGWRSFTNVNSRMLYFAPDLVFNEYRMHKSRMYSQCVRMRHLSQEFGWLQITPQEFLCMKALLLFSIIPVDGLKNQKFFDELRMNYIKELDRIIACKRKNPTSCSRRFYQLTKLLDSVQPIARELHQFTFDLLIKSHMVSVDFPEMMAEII

[4] = test system: LNCaP95 cells; assay: LNCaP95 proliferation, BrdU incorporation; format: cell-based, human; settings: I-EPI-002 2 μM, EPI-002 25 μM, enzalutamide 5 μM; 2 days
[5] = target: ERα (Homo sapiens, UniProt P03372); assay: ER transcriptional activity, ERE luciferase reporter; format: cell-based; settings: estradiol induced
Chain of ERα (P03372 whole entry): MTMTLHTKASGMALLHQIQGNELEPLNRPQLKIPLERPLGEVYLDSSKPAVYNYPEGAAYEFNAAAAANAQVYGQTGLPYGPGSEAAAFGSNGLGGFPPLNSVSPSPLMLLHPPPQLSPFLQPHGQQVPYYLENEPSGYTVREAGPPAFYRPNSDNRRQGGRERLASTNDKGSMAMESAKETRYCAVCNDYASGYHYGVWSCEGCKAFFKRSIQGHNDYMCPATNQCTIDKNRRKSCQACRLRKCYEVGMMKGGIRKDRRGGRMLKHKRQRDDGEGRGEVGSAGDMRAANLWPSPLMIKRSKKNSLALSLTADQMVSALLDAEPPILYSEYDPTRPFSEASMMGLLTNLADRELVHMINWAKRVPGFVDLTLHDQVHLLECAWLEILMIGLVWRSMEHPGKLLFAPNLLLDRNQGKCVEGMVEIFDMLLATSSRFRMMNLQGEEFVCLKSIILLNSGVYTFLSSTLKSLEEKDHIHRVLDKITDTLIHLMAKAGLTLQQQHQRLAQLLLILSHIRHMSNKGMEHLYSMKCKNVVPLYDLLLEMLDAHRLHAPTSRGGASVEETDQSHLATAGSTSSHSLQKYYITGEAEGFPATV

[6] = test system: DU145 cells; assay: DU145 proliferation/viability; format: cell-based, human; settings: up to 10 times the IC50 required to reduce AR-dependent proliferation; 3 days
[7] = target: T3, endogenous full-length AR (Homo sapiens, UniProt P10275, T878A); assay: AR transcriptional activity, PSA
T3 sequence (P10275 1-920 T878A): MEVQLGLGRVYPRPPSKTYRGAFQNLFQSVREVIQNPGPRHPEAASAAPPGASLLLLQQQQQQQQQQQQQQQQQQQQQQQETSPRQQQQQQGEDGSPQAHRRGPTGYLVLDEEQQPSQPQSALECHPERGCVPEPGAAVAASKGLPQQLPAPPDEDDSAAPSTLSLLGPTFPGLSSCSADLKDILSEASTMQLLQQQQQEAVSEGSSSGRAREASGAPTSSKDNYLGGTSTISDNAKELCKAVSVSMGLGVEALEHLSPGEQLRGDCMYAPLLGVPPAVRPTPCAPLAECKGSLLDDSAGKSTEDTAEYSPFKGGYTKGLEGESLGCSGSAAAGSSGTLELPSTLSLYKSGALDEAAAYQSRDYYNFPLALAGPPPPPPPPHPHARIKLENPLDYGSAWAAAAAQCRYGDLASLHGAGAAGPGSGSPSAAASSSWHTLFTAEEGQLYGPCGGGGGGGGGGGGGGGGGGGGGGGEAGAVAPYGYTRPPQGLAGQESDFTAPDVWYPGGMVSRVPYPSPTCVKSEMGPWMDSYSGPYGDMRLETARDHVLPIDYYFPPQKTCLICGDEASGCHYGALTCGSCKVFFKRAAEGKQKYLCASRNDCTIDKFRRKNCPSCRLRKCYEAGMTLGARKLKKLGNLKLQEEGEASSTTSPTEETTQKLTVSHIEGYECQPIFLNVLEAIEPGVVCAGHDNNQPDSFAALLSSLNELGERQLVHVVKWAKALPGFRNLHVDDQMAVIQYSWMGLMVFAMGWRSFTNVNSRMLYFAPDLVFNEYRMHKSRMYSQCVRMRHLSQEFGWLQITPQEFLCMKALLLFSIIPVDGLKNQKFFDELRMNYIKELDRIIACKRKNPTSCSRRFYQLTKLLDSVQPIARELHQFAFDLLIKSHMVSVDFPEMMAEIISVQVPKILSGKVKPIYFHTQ

[8] = test system: LNCaP95 cells; assay: Cell cycle analysis of LNCaP95 cells; format: cell-based, human; settings: I-EPI-002 5 μM, EPI-002 25 μM, 48 hours
[9] = target: T4, GR (Homo sapiens, UniProt P04150); assay: GR transcriptional activity, GRE luciferase reporter; format: cell-based; settings: dexamethasone induced
T4 sequence (P04150 1-777): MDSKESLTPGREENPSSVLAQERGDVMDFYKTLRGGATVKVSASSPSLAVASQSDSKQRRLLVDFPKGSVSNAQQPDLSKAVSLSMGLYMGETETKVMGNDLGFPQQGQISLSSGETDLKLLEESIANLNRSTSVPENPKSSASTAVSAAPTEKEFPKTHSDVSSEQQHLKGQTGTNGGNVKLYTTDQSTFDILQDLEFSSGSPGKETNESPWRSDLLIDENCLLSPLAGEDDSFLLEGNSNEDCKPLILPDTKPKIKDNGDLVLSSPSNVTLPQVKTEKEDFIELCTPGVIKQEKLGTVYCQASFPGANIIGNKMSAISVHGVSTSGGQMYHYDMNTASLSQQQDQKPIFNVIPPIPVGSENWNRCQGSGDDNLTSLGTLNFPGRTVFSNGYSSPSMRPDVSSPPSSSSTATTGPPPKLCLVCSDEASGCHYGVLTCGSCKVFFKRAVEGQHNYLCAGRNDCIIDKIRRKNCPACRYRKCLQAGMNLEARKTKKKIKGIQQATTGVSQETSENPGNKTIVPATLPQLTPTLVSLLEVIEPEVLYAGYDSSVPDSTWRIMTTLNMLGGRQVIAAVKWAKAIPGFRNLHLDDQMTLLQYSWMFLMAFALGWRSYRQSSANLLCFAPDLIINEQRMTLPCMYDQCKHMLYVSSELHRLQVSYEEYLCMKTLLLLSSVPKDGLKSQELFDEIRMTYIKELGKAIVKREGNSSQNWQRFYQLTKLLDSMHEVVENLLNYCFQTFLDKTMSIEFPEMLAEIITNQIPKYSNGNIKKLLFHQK

[10] = test system: ER LBD; assay: Fluorescence polarization competition binding, ER LBD
[11] = test system: PC3 cells; assay: PC3 proliferation/viability; format: cell-based, human; settings: up to 10 times the IC50 required to reduce AR-dependent proliferation; 3 days
[12] = target: T3, endogenous full-length AR; assay: Probasin luciferase activity in LNCaP cells, endogenous full-length AR; settings: I-EPI-002 2 μM, enzalutamide 5 μM; R1881 1 nM 24 hours

## 15-IodoEPI002 [I-EPI-002]
[1]
  competition for ligand binding to PR LBD: did not prevent ligand-binding
[2]
  inhibition of probasin luciferase activity, full-length AR with V7: showed good inhibition
[3]
  competition with fluoromone for binding to AR LBD: did not prevent ligand-binding
[4]
  effect on proliferation of LNCaP95 cells: decreased proliferation
[5]
  inhibition of ER transcriptional activity: did not inhibit
[6]
  effect on proliferation or viability of DU145 cells: no effect
[7]; cell-based functional assays
  potency relative to EPI-002: 10 times
[7]; increasing R1881, enzalutamide 5 μM, I-EPI-002 5 μM, EPI-002 25 μM
  inhibition of AR transcriptional activity with increasing concentrations of androgen: maintained effective inhibition
[7]; ~2 μM, R1881 1 nM
  inhibition of AR transcriptional activity: 75%
[8]
  decrease of S phase cells: ≥ 2 fold
[9]
  inhibition of GR transcriptional activity: did not inhibit
[10]
  competition for ligand binding to ER LBD: did not prevent ligand-binding
[11]
  effect on proliferation or viability of PC3 cells: no effect
[12]
  inhibition of probasin luciferase activity, full-length AR: showed good inhibition
